This is an account of results in ChEMBL document CHEMBL1144416, “Structural requirements for factor Xa inhibition by 3-oxybenzamides with neutral P1 substituents: combining X-ray crystallography, 3D-QSAR, and tailored scoring functions” (J Med Chem, 2005).

Biological target in the first experiment: not listed separately
Nature of the experiment: Binding affinity towards Thrombin. Set-up: species or system Homo sapiens.
As usually defined, the Ki is the dissociation constant of the complex between target and ligand, obtained from inhibition or displacement. The compound `O=C(NCC1CCN(c2ccncc2)CC1)c1ccc(Cl)c(OCCc2ccc(Cl)cn2)c1` showed a Ki of 5.4 µM.

On to `O=C(NCC1CCN(c2ccncc2)CC1)c1ccc(Cl)c(OCCc2ccc(Cl)cc2)c1`, for which the affinity corresponds to a Ki of 2.76 µM.

With `COc1ccc(C(=O)NCC2CCN(c3ccnc(C)c3)CC2)cc1OCCc1ccc(Cl)cc1Cl`, the affinity, expressed as Ki, was 20.8 µM.

`COc1cc(C(=O)NCC2CCN(c3ccncc3)CC2)cc(OCCc2ccc(Cl)cc2Cl)c1OC`: the affinity corresponds to a Ki of 4.12 µM.

`O=C(NCC1CCN(c2ccncc2)CC1)c1ccc(F)c(OCCc2ccc(Cl)cc2)c1` had a Ki of 5.62 µM. The Ki values of the last two compounds are within 1.5-fold of each other.

Compound `CNc1ccc(C(=O)NCC2CCN(c3ccncc3)CC2)cc1OCCc1ccc(Cl)cc1Cl` displayed a Ki of 1.1 µM.

Compound `O=C(NCC1CCN(c2ccncc2)CC1)c1ccc(C(F)(F)F)c(OCCc2ccc(Cl)cc2Cl)c1` displayed a Ki of 31.8 µM.

In the case of `O=C(NCC1CCN(c2ccncc2)CC1)c1cc(OCCc2ccc(Cl)cc2Cl)c2c(c1)OCO2`, the Ki is 1.68 µM.

The compound `COc1cc(C(=O)NCC2CCN(c3ccncc3)CC2)cc(OCCc2ccc(Cl)cc2)c1Cl` had a Ki of 3.73 µM.

With `COc1cc(C(=O)NCC2CCN(c3ccncc3)CC2)cc(OCCc2ccc(Cl)cc2Cl)c1Br`, the Ki is 2.27 µM. Against the preceding compound, the Ki is about 1.6-fold lower.

On to `O=C(NCC1CCN(c2ccncc2)CC1)c1ccc(Cl)c(OCCc2ccc(Cl)cc2Cl)c1`, for which the Ki stood at 3.06 µM.

Consider `CCOc1ccc(C(=O)NCC2CCN(c3ccncc3)CC2)cc1OCCc1ccc(Cl)cc1Cl`, for which the Ki was found to be 6.32 µM.

Take `NC(=O)c1cc(OCCc2ccc(Cl)cc2Cl)cc(C(=O)NCC2CCN(c3ccncc3)CC2)c1`: the affinity, expressed as Ki, was 5.08 µM.

For `COc1cc(C(=O)NCC2CCN(c3ccncc3)CC2)cc(OCCc2ccc(Cl)cc2Cl)c1C`, the affinity corresponds to a Ki of 1.74 µM.

Compound `COc1cc(C(=O)NCC2CCN(c3ccncc3)CC2)cc(OCCc2ccc(Cl)cc2Cl)c1Cl` registered a Ki of 1.8 µM.

`Cc1ccc(C(=O)NCC2CCN(c3ccncc3)CC2)cc1OCCc1ccc(Cl)cc1Cl` yielded a Ki of 4.87 µM. This Ki is about 2.7-fold higher than that of the compound before.

In the case of `CCOc1cc(C(=O)NCC2CCN(c3ccncc3)CC2)cc(OCCc2ccc(Cl)cc2Cl)c1Br`, the affinity, expressed as Ki, was 36.9 µM.

With `O=C(NCC1CCN(c2ccncc2)CC1)c1ccc(Cl)c(OCCc2ccc(Br)cc2)c1`, affinity was put at a Ki of 4.73 µM.

As for `COc1ccc(C(=O)NCC2CCN(c3ccncc3)CC2)cc1OCCc1ccc(Cl)cc1`, affinity was put at a Ki of 5.27 µM.

Another experiment deals with Coagulation factor X (Homo sapiens, UniProt P00742). Kind of experiment: Binding affinity towards human Coagulation factor X.
Chain of Coagulation factor X (P00742 41-179 limits assumed): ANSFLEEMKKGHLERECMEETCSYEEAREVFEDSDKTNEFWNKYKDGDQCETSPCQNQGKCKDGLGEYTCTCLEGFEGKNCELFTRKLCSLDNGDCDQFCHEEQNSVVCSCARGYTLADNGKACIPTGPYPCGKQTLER
Chain of Coagulation factor X (P00742 235-488 limits assumed): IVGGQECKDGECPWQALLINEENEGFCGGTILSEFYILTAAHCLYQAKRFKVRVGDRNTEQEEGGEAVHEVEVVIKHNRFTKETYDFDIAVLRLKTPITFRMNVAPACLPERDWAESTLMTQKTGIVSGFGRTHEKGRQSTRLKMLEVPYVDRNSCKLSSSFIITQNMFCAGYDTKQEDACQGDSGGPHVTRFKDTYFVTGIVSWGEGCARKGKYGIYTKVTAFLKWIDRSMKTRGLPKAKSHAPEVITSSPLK
`COc1ccc(N2CCC(CNC(=O)c3ccc(OC)c(OCCc4ccc(Cl)cc4Cl)c3)CC2)cn1` had a Ki of 10 µM.

`CC(=O)Nc1ccc(CCOc2cc(C(=O)NCC3CCN(c4ccncc4)CC3)ccc2Cl)cc1`: the Ki turned out to be 10 µM.

For the compound `COc1ccc(C(=O)N2CCN(Cc3ccc(F)cc3)CC2)cc1OCCc1ccc(Cl)cc1Cl`, the Ki came to 3.93 µM. Against the preceding compound, the Ki is about 2.5-fold lower.

`COc1ccc(C(=O)NCC2CCN(c3cccc(C#N)c3)CC2)cc1OCCc1ccc(Cl)cc1Cl` came in with a Ki of 10 µM.

For `COc1ccc(C(=O)NC2CCN(C3CCCCC3)CC2)cc1OCCc1ccc(Cl)cc1Cl`, the affinity corresponds to a Ki of 4.03 µM.

`COc1ccc(C(=O)NC2CCN(c3cc[n+]([O-])cc3)CC2)cc1OCCc1ccc(Cl)cc1Cl` came in with a Ki of 1.27 µM.

Consider `COc1ccc(C(=O)NC2CCN(C3CCOCC3)CC2)cc1OCCc1ccc(Cl)cc1Cl`, for which the Ki came to 2.52 µM.

Turning to `COc1ccc(C(=O)Nc2ccc(-c3ccccc3C#N)cc2)cc1OCCc1ccc(Cl)cc1Cl`, the Ki is 10 µM. This Ki is about 4-fold higher than that of the compound before.

In turn, `COc1ccc(C(=O)NCC2CCN(c3cncnc3)CC2)cc1OCCc1ccc(Cl)cc1Cl` registered a Ki of 10 µM.

Take `CC(=O)Oc1cc(C(=O)NCC2CCN(c3ccncc3)CC2)cc(OCCc2ccc(Cl)cc2Cl)c1Br`: the Ki worked out at 0.285 µM.

Compound `COc1ccc(C(=O)NCC2CCN(c3ccnc(SC)n3)CC2)cc1OCCc1ccc(Cl)cc1Cl` registered a Ki of 10 µM.

`COc1cc(N2CCC(CNC(=O)c3ccc(OC)c(OCCc4ccc(Cl)cc4Cl)c3)CC2)nc(OC)n1` showed a Ki of 10 µM. This counts as double-digit micromolar.

With `CCN(CC)C(=O)[C@H](CCCN=C(N)N)NC(=O)c1ccc(OC)c(OCCc2ccc(Cl)cc2Cl)c1`, affinity was put at a Ki of 0.153 µM.

Regarding `COc1ccc(C(=O)NCC2CCN(c3ccc(S(C)(=O)=O)cc3)CC2)cc1OCCc1ccc(Cl)cc1Cl`, the affinity corresponds to a Ki of 10 µM. This Ki lies about 65-fold higher than the previous one.

Compound `CC(=O)Nc1ccc(CCOc2cc(C(=O)NCC3CCN(c4ccncc4)CC3)ccc2F)cc1` returned a Ki of 10 µM.

`COc1ccc(C(=O)NC2CCN(CC(=O)N3CCCC3)CC2)cc1OCCc1ccc(Cl)cc1Cl` had an inhibitory constant (Ki) of 2.57 µM. This Ki is about 3.9-fold lower than that of the compound before.

In turn, `O=C(c1cccc(OCCc2ccc(Cl)cc2Cl)c1)N1CCN(Cc2ccncc2)CC1` came in with a Ki of 2.82 µM. This Ki and that of the compound before are within 1.5-fold of each other.

The compound `COc1ccc(C(=O)NCC2CCN(c3cc(C)nc(N)n3)CC2)cc1OCCc1ccc(Cl)cc1Cl` yielded a Ki of 10 µM.

In the case of `COc1ccc(C(=O)NCC2CCN(C3CCNCC3)CC2)cc1OCCc1ccc(Cl)cc1Cl`, the affinity, expressed as Ki, was 5.76 µM.

In the case of `COc1ccc(C(=O)NCC2CCN(c3ccc(Cl)cc3)CC2)cc1OCCc1ccc(Cl)cc1Cl`, the Ki was determined as 10 µM.
